Results from a melting point compilation (Tetko et al.; mined from patent text by program, amines drawn as free bases though some values may be those of a salt).

First: CCCCCCNC(=O)c1cc(OC(C)=O)ccc1OC(C)=O
Second: CCCCCCCCCC(O)Cc1ccc(O)c(O)c1 (stereo unspecified)
The melting point of the first is higher: 76.5 to 77 °C for the first, 56 to 58 °C for the second.

First: O=C(CC1Sc2ccccc2NC1=O)NCc1ccccc1 (stereo unspecified)
Second: O=C(CNC(=O)c1ccccc1)c1ccccc1
The melting point of the first is higher: 238 to 240 °C for the first, 114 to 120 °C for the second.

Compared with `COc1cc(C)nc(-n2ccnc2)n1`, `COc1ccc2nc3c(cc2c1)c(Cl)nn3C` is higher in melting point: 53 to 54 °C for the first, 138 to 139 °C for the second.

First: O=C(NCCN1CCN(C(c2ccccc2)c2cccnc2)CC1)C1CSC(c2cccnc2)N1 (stereo unspecified)
Second: COc1cccc(N2CCN(CCC(O)COc3ccccc3)CC2)c1 (stereo unspecified)
The melting point of the first is higher: 130 to 131 °C for the first, 58 to 60 °C for the second.

First: CCc1cccc(CC)c1NC(=O)C(C)Br (stereo unspecified)
Second: CCCCCCCCCCCCn1nnc(NC(=O)CS(=O)(=O)Nc2c(C(C)C)cccc2C(C)C)n1
The melting point of the first is higher: 197 to 199 °C for the first, 138 to 140 °C for the second.

Compared with `CCOC(=O)C(Cc1ccc(C)c(OC(F)(F)C(F)F)c1)C(=O)c1ccc(F)cc1` (stereo unspecified), `O=C(O)[C@H](Cc1ccc(C(F)(F)F)c(F)c1)[C@@H](O)c1ccc(F)cc1` (racemic) is higher in melting point: 52 to 53 °C for the first, 74 to 75 °C for the second.

`CCCCc1nn(-c2cc([N+](=O)[O-])ccc2Cl)c(=O)[nH]1` and `COc1cc2c(cc1O)/C(=N/OCc1ccc([N+](=O)[O-])cc1)CC2` cannot be ordered by melting point: 145 to 147 °C for the first, 146 to 149 °C for the second.

First: Cc1cc(N2CCC(CC(=O)N3CCN(Cc4ccccc4)CC3)CC2)ccc1Oc1ccc(NS(=O)(=O)c2ccc(Cl)c(Cl)c2)cn1
Second: NS(=O)(=O)c1ccc(-c2cnn(Cc3ccccc3)c(=O)c2-c2ccc(F)cc2)cc1
The melting point of the first is lower: 151 to 155 °C for the first, 185 to 189 °C for the second.

Going from `COc1cc(C(=O)c2ncc3ccc(NC(C)=O)cn23)ccc1[N+](=O)[O-]` to `COc1cccc(OC)c1-c1cc(C(=O)NC2(C(=O)O)C3CC4CC(C3)CC2C4)nn1-c1ccc([N+](=O)[O-])cc1C` (stereo unspecified), the melting point falls from 257 °C to 150 °C.

First: CC(C)c1nc(CO)c(CO)[nH]1
Second: CSc1[nH]c(C(C)C)nc(=O)c1C#N
The melting point of the first is lower: 200 to 201 °C for the first, > 260 °C for the second.

First: CNc1cn(-c2cncnc2)nc1Cl
Second: Clc1ccc(Cn2cnc3c(Cl)ncnc32)cc1Cl
The melting point of the first is lower: 111 to 114 °C for the first, 130 to 133 °C for the second.

First: CCOC(=O)c1cc2cc([Si](C)(C)C)ccc2n1Cc1cccc(F)c1
Second: COC(=O)c1c(C(=O)OC)n(Cc2cccc(C(N)=S)c2)c2ccccc12
The melting point of the first is lower: 80 to 82 °C for the first, 176 to 178 °C for the second.

`CCCCCCCCNC(=O)N1CCC(Nc2ccc(CCNC[C@H](O)COc3ccc(F)cc3)cc2)CC1` and `CCCCCCCC(=O)NCCCCCO` cannot be ordered by melting point: 58 to 64 °C for the first, 62 to 63 °C for the second.

Compared with `CCCCOC(=O)c1c(CBr)nc2cc(OC)c(OC)cc2c1-c1ccc(OC)c(OC)c1`, `COc1cc(Nc2nccc(Nc3cccc(C)c3S(N)(=O)=O)n2)cc(OC)c1OC` is lower in melting point: 160 to 161 °C for the first, 72 to 75 °C for the second.

First: CC1CC(=O)N(c2ccccc2)c2cc(Cl)ccc2N1 (stereo unspecified)
Second: O=C1C(CCO)Oc2ccc(Cl)cc2N1Cc1cccc(Cl)c1 (stereo unspecified)
The melting point of the first is higher: 167 to 168 °C for the first, 90 to 92 °C for the second.

Compared with `COc1ccc(NC(=O)N[C@H]2C[C@@](N)(C(=O)O)[C@@H]3[C@@H](C(=O)O)[C@@H]32)cc1` (relative stereo), `COC(=O)c1cc(C(=O)NCC(N)=O)c2cc(Cc3ccc(F)cc3)cnc2c1O` is lower in melting point: > 250 °C for the first, 247 to 248 °C for the second.

Going from `Fc1cc(Br)c(OCc2ccccc2)c(Br)c1` to `O=c1ncc(Cl)cn1COCc1ccccc1`, the melting point rises from 83 °C to 125 °C.

First: Cn1cnc2nc(-c3ccc(F)cc3)nn2c1=S
Second: Cn1nc(-c2ccccc2)nc1-c1ccccc1CBr
The melting point of the first is higher: > 300 °C for the first, 83 to 85 °C for the second.

First: COCc1c(NC2CC2)c([N+](=O)[O-])cc(F)c1N1CCN(C)CC1
Second: COc1cc(Nc2nccc(Nc3ccc(N4CCN(C)CC4)cc3)n2)cc(OC)c1OC
The melting point of the first is lower: 89 to 90 °C for the first, 104 °C for the second.

First: [N-]=[N+]=NCc1cc(=O)c(OCc2ccccc2)cn1Cc1ccccc1
Second: C[Si](C)(C)C#Cc1ccc(C(=O)OCc2ccccc2)cc1OCc1ccccc1
The melting point of the first is higher: 120 °C for the first, 110 to 112 °C for the second.

First: Cc1ccc2c(c1Cl)S(=O)(=O)NCN2C1CC1
Second: O=S(=O)(c1ccc(Cl)cc1)N1CCCC1c1ccc(Cl)cc1 (racemic)
The melting point of the first is higher: 230 to 232 °C for the first, 159 °C for the second.

First: CCCCN(CC)c1cc(C)nc(Oc2c(C)cc(Cl)cc2C)c1C
Second: Cc1c(C)c2c(c(C)c1NC(=O)CCCO)C(c1ccc(C(C)C)cc1)CO2 (stereo unspecified)
The melting point of the first is higher: 177 to 178 °C for the first, 156 to 157 °C for the second.

First: CCOC(=O)N(C)c1c(OC)cc(Cc2cnc(N)nc2N)cc1OC
Second: COc1cc(OC)nc(Oc2cccc(O)c2C=O)n1
The melting point of the first is higher: 187 to 188 °C for the first, 82 °C for the second.

First: Fc1ccc(C2(Cn3ncnc3S)OC2c2ccccc2Cl)cc1 (stereo unspecified)
Second: Oc1ccc(Cc2ccccc2)c2cccnc12
The melting point of the first is higher: 179 to 180 °C for the first, 112 to 113 °C for the second.

First: C=CCOc1ccc(C#N)c(O)c1
Second: CC(=O)Oc1ccc2c(c1)C(C(Cl)(Cl)Cl)OC(C(Cl)(Cl)Cl)O2 (stereo unspecified)
The melting point of the first is lower: 134 to 136 °C for the first, 142 to 144 °C for the second.

First: CN(C)c1cnn(C)c(=O)c1-c1ccccc1C=NO
Second: CN1C(=O)CN=C(c2ccccc2F)c2c1cc(Cl)c(N)c2Cl
The melting point of the first is lower: 202 to 203 °C for the first, 234 °C for the second.

Compared with `Cc1c(CC(=O)O)c2cc(OCc3csc(-c4ccccc4)n3)ccc2n1Cc1ccc(Cl)cc1`, `Cc1ccc2nc(-c3ccccc3)cc(OCc3ccccc3)c2c1` is lower in melting point: 150 to 151 °C for the first, 139 °C for the second.

First: Cn1cc(C[C@H]2NC(=O)[C@@H](CCC(=O)O)NC2=O)c2ccccc21
Second: O=C(NC1CCN(CCC2CCCCC2)CC1)c1ccccc1
The melting point of the first is higher: 228 °C for the first, 174 to 175 °C for the second.

First: CC12CCC(=O)C(CSc3ccccc3)=C1CCC1C2CCC2(C)C1CCC2(C)O (stereo unspecified)
Second: CN1C(=O)CC[C@]2(C)c3ccc(CCc4ccc5ccccc5c4)cc3CC[C@@H]12
The melting point of the first is higher: 123 to 130 °C for the first, 109 to 110 °C for the second.

Compared with `NS(=O)(=O)c1ccccc1CN1CCCC1`, `c1ccc2c(c1)NCCc1nncn1-2` is higher in melting point: 110 to 112 °C for the first, 162 to 165 °C for the second.

First: Oc1cc(Br)c2oc(-c3ccc(O)c(F)c3F)nc2c1
Second: COc1c(C(=O)O)nc(-c2ccc(Cl)c(OC)c2F)c(F)c1N
The melting point of the first is higher: 258 to 260 °C for the first, 143 to 146 °C for the second.

First: Nc1onc2c1CCC2
Second: O=C(CCc1cccc(F)c1F)c1cnc2sc3c(n12)CCCCC3
The melting point of the first is higher: 135 °C for the first, 108 to 110 °C for the second.

First: CC(C)C[C@H]1C(=O)NC2CCC(=O)N21 (stereo partly specified)
Second: COc1cc2c(cc1OC)C(=O)C(C(=O)C(F)(F)F)CS2 (stereo unspecified)
The melting point of the first is higher: 156 to 157 °C for the first, 148 to 151 °C for the second.

First: O=c1[nH]c2ncc(-c3ccc(O)cc3)nc2n1CC1CCCOC1 (stereo unspecified)
Second: CN1CCN(CC(=O)Nc2cccc3c2C(=O)c2c-3n[nH]c2-c2ccc(N3CCOCC3)cc2)CC1
The melting point of the first is higher: 271 to 272 °C for the first, 258 °C for the second.

Compared with `CN(C)CCOc1ccccc1NC(=O)c1cccc2[nH]ccc12`, `CCN(CC)C(=O)CCCOc1ccc(Oc2ccccc2)cc1` is lower in melting point: 110 °C for the first, 73 to 74 °C for the second.

First: CC(C)[C@@H](CNC(=O)/C=C/c1ccccc1)NC(=O)OC(C)(C)C
Second: CC(NC(=O)CC(CNC(=O)OC(C)(C)C)c1ccc(Cl)c(Cl)c1)c1ccccc1 (stereo unspecified)
The melting point of the first is lower: 149 to 151 °C for the first, 161 to 162 °C for the second.

Compared with `Cc1nc(-n2cnn(CC3CC3)c2=O)sc1C(=O)NCc1ccncc1`, `Cc1nc(N2CCN(Cc3ccccc3)C2=N)sc1C(=O)NCc1ccc(F)c(F)c1` is lower in melting point: 169 to 170 °C for the first, 140 to 142 °C for the second.

First: Brc1ccc(-c2cc3nccnc3[nH]2)cc1
Second: O=Cc1cnc(Nc2n[nH]c3ccc(-c4ncccc4Cl)cc23)s1
The melting point of the first is higher: 326 to 329 °C for the first, 223 to 224 °C for the second.

First: CC(=O)NC(C)(C)c1ccc(C(C)N2CCN(c3ccccc3)CC2)cc1 (stereo unspecified)
Second: CS(=O)(=O)N1CCN(c2ccc(NC(=O)c3ccccc3-c3ccc(C(F)(F)F)cc3)cc2)CC1
The melting point of the first is lower: 169 to 171 °C for the first, 254 to 256 °C for the second.

Compared with `COCCc1sc2ncnc(N)c2c1-c1ccc(NC(=O)Nc2ccc(C)cc2)cc1`, `COc1ccc(Cc2ccc(-c3cnn4c(O)ncnc34)cc2)cc1` is higher in melting point: 128 to 132 °C for the first, 296 to 298 °C for the second.

First: S=C(N=c1ccn(-c2ccccc2)nc1)Nc1ccccc1
Second: CCCOc1nc(NC(C)C(O)c2ccccc2)c2cnn(-c3ccccc3)c2n1 (stereo unspecified)
The melting point of the first is higher: 171 to 173 °C for the first, 136 to 138 °C for the second.

`COc1cc(CCCCCCC2OC(=O)NC2=O)ccc1OCc1nc(-c2ccccc2)oc1C` (stereo unspecified) and `CCOC(=O)COc1cccc(-c2cc(O)c(SCCc3ccccc3)c(=O)o2)c1` cannot be ordered by melting point: 113 to 117 °C for the first, 116 to 119 °C for the second.

First: Nc1ncccc1-c1nc2cccnc2n1-c1ccc(CNC(=O)c2ccccn2)cc1
Second: O=C(Nc1cc(CCCS(=O)(=O)c2ccc(Cl)cc2)ccc1OCc1nnn[nH]1)c1cccc(OCc2nc3ccccc3s2)c1
The melting point of the first is lower: 172 to 174 °C for the first, 189 to 191 °C for the second.

First: Cn1cc2cc3ncc(-c4ccc(Cl)s4)nc3cc2n1
Second: COc1cc(OC)cc(-c2nc(-c3ccccn3)no2)c1
The melting point of the first is higher: 222 to 224 °C for the first, 145 to 148 °C for the second.

Compared with `O=C(O)C=Cc1cccc(Oc2ccccc2)c1`, `Nc1nccc(Oc2ccc3c(C(=O)O)cccc3c2)n1` is higher in melting point: 107 to 109 °C for the first, 205 °C for the second.

Compared with `O=C(NCCCc1ccncc1)N(CCC12CC3CC(CC(C3)C1)C2)CC1CC1`, `O=C1CC(Cc2ccc(F)cc2)CN1` (stereo unspecified) is lower in melting point: 123 to 125 °C for the first, 88.5 to 90 °C for the second.

Compared with `CCOC(=O)C(C)N1c2ccccc2Sc2ccc(C#N)cc21` (racemic), `CCCn1cc(-c2nc(C#N)c(N)nc2-c2ccccc2)ccc1=O` is higher in melting point: 117 to 118 °C for the first, 180 to 183 °C for the second.

First: CN(C)CCCn1nnc(-c2ccc3c(c2)S(=O)(=O)c2ccccc2C3=O)n1
Second: COc1ccccc1CN(CC(=O)OC(C)(C)C)S(=O)(=O)c1ccc2c(Cl)cnc(Cl)c2c1
The melting point of the first is higher: 141 to 142 °C for the first, 106 to 108 °C for the second.

`Cc1c(C2=NNC(=O)SC2C)ccc2c1C(C)(C)C(=O)N2` (stereo unspecified) and `O=C1N(Cc2ccccn2)c2cccc(-c3cncnc3)c2C12COc1cc3c(cc12)CCO3` (stereo unspecified) cannot be ordered by melting point: 279 °C for the first, > 200 °C for the second.

First: CN(c1ccccc1)P(N)(N)=O
Second: COc1ccc2cc(CCC3(C)OCCO3)cc(F)c2c1
The melting point of the first is higher: 97 to 99 °C for the first, 51 to 53 °C for the second.

Work on `Cc1c(OCCCSc2ccc3ncc([N+](=O)[O-])n3n2)ccnc1CO` yielded a melting point of 135 to 136 °C.
